Data set [1] can be described thus: Turbidity test (OD620) for aggregation. It is filed as physicochemical.
Data set [2] deals with CarD·RNAP binding (CarD association with RPo).
Another data set deals with RNAP. As to conditions: cited from earlier work.

Each structure is given as a SMILES string. Values joined by “and” are separate entries in the source; they are usually repeats but may differ in a detail not shown here. Equal values may be shown once. Read-outs that look alike come from different tables or passages of the source.

The values that follow come from article PMC7718890 (Scientific Reports, 2020).

The term IC50 denotes the concentration at which inhibition is half-maximal.

Chain of CarD·RNAP binding (CarD association with RPo) (P9WGY5 whole entry): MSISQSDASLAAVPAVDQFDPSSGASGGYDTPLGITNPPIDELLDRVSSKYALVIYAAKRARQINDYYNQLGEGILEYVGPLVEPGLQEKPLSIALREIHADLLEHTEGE
Chain of CarD·RNAP binding (CarD association with RPo) (P9WGI1 whole entry, further chain): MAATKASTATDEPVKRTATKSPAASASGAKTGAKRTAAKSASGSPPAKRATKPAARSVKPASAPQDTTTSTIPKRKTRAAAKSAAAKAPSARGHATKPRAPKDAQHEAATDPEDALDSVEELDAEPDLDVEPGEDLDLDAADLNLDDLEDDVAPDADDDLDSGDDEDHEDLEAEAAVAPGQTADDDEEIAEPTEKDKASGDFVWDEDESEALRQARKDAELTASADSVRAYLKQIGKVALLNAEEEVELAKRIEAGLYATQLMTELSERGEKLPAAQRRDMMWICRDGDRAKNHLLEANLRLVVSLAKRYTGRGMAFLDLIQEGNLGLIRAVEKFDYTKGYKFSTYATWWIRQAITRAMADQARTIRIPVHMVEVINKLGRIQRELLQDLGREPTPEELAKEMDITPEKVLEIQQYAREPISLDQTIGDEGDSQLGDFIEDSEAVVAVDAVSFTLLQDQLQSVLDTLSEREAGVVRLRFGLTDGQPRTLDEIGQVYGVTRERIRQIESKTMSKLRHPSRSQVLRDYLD
Chain of CarD·RNAP binding (CarD association with RPo) (P9WGY7 whole entry, further chain): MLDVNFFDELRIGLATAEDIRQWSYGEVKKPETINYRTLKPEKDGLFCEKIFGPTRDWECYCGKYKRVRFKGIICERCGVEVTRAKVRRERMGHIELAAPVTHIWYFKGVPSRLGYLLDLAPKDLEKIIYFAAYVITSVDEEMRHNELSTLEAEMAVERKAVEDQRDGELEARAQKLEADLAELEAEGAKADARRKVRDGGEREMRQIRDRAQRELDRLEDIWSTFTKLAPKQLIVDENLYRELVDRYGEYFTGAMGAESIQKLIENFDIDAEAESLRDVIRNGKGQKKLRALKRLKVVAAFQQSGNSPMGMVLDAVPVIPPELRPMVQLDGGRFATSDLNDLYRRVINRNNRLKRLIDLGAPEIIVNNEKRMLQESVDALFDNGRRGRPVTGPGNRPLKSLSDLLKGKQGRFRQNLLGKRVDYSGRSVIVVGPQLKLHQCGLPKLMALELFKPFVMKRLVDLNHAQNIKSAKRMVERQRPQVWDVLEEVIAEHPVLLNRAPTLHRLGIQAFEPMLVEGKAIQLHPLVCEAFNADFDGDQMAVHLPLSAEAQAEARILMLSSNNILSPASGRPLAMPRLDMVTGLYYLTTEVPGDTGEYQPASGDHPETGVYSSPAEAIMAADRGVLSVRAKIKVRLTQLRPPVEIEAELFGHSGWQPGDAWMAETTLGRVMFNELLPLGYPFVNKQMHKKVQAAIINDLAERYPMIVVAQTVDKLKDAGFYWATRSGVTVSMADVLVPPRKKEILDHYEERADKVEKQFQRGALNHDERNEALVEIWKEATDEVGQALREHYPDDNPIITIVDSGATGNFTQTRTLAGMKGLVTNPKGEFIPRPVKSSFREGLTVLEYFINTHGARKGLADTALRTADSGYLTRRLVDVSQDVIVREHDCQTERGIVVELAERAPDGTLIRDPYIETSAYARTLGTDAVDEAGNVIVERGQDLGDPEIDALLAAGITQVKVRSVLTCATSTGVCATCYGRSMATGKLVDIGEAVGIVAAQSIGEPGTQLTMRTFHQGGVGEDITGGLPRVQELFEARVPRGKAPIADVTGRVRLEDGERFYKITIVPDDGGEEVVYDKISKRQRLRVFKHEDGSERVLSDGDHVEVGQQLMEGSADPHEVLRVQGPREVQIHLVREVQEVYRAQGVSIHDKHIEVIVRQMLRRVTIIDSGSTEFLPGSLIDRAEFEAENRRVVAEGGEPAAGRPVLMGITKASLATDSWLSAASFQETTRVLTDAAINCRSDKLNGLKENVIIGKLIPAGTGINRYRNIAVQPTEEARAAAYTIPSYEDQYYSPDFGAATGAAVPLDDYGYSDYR
Chain of CarD·RNAP binding (CarD association with RPo) (P9WGY9 whole entry, further chain): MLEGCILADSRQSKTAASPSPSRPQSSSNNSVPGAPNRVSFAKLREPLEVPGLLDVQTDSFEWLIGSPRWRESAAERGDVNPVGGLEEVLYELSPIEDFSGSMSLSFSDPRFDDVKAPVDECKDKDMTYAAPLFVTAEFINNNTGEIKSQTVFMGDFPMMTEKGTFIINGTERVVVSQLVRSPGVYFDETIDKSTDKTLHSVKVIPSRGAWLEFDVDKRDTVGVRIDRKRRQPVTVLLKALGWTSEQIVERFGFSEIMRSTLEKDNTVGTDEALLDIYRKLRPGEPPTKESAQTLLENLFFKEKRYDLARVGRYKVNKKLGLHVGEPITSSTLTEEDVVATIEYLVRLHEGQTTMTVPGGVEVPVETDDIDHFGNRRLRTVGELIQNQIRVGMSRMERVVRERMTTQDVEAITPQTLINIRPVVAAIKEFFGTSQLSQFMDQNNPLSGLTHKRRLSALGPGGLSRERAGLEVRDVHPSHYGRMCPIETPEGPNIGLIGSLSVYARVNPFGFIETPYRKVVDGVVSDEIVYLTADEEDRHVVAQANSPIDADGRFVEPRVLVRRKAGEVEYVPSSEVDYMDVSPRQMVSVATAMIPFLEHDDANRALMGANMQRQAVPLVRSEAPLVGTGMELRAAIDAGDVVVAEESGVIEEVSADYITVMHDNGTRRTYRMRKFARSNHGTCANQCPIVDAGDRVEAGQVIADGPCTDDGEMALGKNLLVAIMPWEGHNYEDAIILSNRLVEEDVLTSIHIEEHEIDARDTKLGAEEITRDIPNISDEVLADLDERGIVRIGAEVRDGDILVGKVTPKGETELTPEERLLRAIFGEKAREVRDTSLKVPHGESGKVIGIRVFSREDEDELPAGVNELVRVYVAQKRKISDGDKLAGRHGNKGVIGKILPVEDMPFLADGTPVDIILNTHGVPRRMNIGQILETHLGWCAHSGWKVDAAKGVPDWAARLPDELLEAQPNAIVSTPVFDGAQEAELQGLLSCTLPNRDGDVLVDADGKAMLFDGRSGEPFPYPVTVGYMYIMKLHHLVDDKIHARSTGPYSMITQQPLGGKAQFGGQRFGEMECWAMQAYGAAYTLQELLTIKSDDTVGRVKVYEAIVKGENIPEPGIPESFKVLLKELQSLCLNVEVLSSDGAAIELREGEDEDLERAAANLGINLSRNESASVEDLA
Chain of CarD·RNAP binding (CarD association with RPo) (P9WGZ1 whole entry, further chain): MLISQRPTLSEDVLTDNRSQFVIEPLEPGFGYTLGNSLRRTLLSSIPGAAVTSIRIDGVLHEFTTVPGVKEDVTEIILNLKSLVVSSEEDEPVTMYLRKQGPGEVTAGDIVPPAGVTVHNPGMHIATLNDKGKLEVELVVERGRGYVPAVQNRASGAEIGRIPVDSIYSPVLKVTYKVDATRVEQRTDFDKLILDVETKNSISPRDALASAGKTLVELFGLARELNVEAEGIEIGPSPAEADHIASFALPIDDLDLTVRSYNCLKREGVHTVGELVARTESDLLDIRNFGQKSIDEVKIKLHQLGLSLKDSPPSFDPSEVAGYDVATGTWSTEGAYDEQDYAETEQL

With `O=C(O)c1ccc(-c2nc3ccc(-c4ccc5nc(-c6ccc(C(=O)O)cc6)[nH]c5c4)cc3[nH]2)cc1` [CCG-249580], the “Concentration above which compound is prone to aggregation (turbidity curve)” value in data set [1] is given as “higher than 34 µM”. Moreover, the IC50 in data set [2] is 32 µM and 45 µM. Take `Cc1cc2c(NC(=O)Nc3ccccc3)cccc2nn1` [CCG-237488]: the IC50 in data set [2] worked out at 20 µM. Regarding `CCc1c(Cl)c(O)c(Cl)c(O)c1C(=O)O[C@H]1[C@H](O)[C@H](OC)[C@H](OC/C2=C\C=C\C[C@H](O)/C(C)=C/[C@H](CC)[C@@H](O[C@@H]3OC(C)(C)[C@@H](OC(=O)C(C)C)[C@H](O)[C@@H]3O)/C(C)=C/C(C)=C/C[C@@H]([C@@H](C)O)OC2=O)O[C@@H]1C` [Fidaxomicin], the IC50 in the data set with RNAP (read-out: IC50 In Vitro Transcription +RbpA) was 0.21 µM; in the data set on RNAP (read-out: IC50 In Vitro Transcription -RbpA), 7 µM.
